This note sets out measurements from US11325938B2, “CD73 inhibitors” (ORIC Pharmaceuticals, Inc., priority 2018, dated 2022).

In this experiment the target is CD73 (Homo sapiens (Human), UniProt P21589). Description: Biochemical assay: inhibition of CD73 activity (AMP hydrolysis, Malachite Green readout). The conditions noted are these: CD73 0.3208 nM, AMP 15 μM, 25 mM Tris-HCl pH 7.4, RT, absorbance 620 nm. Here is the method: Example A1: Biochemical Assay
Sequence of CD73 (P21589 27-574): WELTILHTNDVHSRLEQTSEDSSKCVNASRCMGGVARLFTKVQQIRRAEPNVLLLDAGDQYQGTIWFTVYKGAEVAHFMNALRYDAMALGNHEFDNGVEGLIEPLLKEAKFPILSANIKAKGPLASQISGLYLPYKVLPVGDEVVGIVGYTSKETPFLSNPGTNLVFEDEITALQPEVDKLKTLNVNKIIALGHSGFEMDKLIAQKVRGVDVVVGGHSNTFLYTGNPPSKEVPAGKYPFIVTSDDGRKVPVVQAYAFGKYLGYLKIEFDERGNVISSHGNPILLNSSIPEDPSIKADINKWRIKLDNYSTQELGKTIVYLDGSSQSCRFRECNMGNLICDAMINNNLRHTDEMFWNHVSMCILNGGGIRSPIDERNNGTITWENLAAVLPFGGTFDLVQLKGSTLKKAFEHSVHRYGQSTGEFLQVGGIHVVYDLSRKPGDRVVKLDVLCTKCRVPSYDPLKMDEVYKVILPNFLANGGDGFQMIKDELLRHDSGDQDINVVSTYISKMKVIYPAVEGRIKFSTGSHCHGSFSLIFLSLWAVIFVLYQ
Assay Reaction Conditions
• Assay Volume: 70 μl • Reaction Volume: 50 μl • CD73: 0.3208 nM • AMP: 15 μM • Assay Buffer: 25 mM Tris-HCL, pH 7.4, 0.01% Brij-35, 0.01% BSA, 5 mM MgCl2 Assay Procedure:
Made dose titration of testing compounds in assay buffer, 10 points ½ log titrations in duplicates starting at 100 μM.
Added 25 μl of CD73 to each well for a final concentration of 320 pM.
Incubated at RT for 15 min.
Added 25 μl of AMP to each well for a final concentration of 15 μM.
Incubated at RT for 10 min.
Added 10 μl of Malachite Green Reagent A, incubate at RT for 10 min.
Added 10 of Malachite Green Reagent B, incubate at RT for 45 min.
Read the Absorbance on Envision plate reader using excitation filter: Cy5 […].
The ability of the compounds disclosed herein to inhibit CD73 activity was quantified and the respective IC50 values were determined. Table 2 provides the biochemical IC50 values of compounds disclosed herein.
By IC50 is commonly meant the concentration that inhibits the measured activity by half. For the molecule `NC(=O)OCC(CO)(OC[C@H]1O[C@@H](n2ncc3c(NC4CCCC4)nc(Cl)nc32)[C@H](O)[C@@H]1O)P(=O)(O)O` (mixture of isomers) [Example 178, rac-(1-(carbamoyloxy)-2-(((2R,3S,4R,5R)-5-(6-chloro-4-(cyclopentylamino)-1H-pyrazolo[3,4-d]pyrimidin-1-yl)-3,4-dihydroxytetrahydrofuran-2-yl)methoxy)-3-hydroxypropan-2-yl)phosphonic acid], the IC50 is no more than 100 nM. Next, `O=P(O)(O)[C@](CO)(COCc1ccccc1)OC[C@H]1O[C@@H](n2ncc3c(NC4CCCC4)nc(Cl)nc32)[C@H](O)[C@@H]1O` (racemic) [Example 179, rac-((R)-1-(benzyloxy)-2-(((2R,3S,4R,5R)-5-(6-chloro-4-(cyclopentylamino)-1H-pyrazolo[3,4-d]pyrimidin-1-yl)-3,4-dihydroxytetrahydrofuran-2-yl)methoxy)-3-hydroxypropan-2-yl)phosphonic acid]: no more than 100 nM; `O=P(O)(O)[C@@](CO)(COCc1ccccc1)OC[C@H]1O[C@@H](n2ncc3c(NC4CCCC4)nc(Cl)nc32)[C@H](O)[C@@H]1O` (racemic) [Example 180, rac-((R)-1-(benzyloxy)-2-(((2S,3R,4S,5S)-5-(6-chloro-4-(cyclopentyalmino)-1H-pyrazolo[3,4-d]pyrimidin-1-yl)-3,4-dihydroxytetrahydrofuran-2-yl)methoxy)-3-hydroxypropan-2-yl)phosphonic acid]: no more than 100 nM; `C[C@H](O)COc1nc(NC2CCCC2)c2cnn([C@@H]3O[C@H](COC(CO)(CO)P(=O)(O)O)[C@@H](O)[C@H]3O)c2n1` (racemic) [Example 181, rac-(2-(((2R,3S,4R,5R)-5-(4-(cyclopentylamino)-6-((S)-2-hydroxypropoxy)-1H-pyrazolo[3,4-d]pyrimidin-1-yl)-3,4-dihydroxytetrahydrofuran-2-yl)methoxy)-1,3-dihydroxypropan-2-yl)phosphonic acid]: no more than 100 nM.

On to `C[C@@](CO)(OC[C@H]1O[C@@H](n2ncc3c(N[C@@H]4CC[C@H]5CCC[C@H]54)nc(Cl)nc32)[C@H](O)[C@@H]1O)P(=O)(O)O` (racemic) [Example 182, rac-((R)-2-(((2R,3S,4R,5R)-5-(6-chloro-4-(((1R,3aR,6aR)-octahydropentalen1-yl)amino)-1H-pyrazolo[3,4-d]pyrimidin-1-yl)-3,4-dihydroxytetrahydrofuran-2-yl)methoxy)-1-hydroxypropan-2-yl)phosphonic acid], for which the half-inhibitory concentration (IC50) is no more than 100 nM.

Molecule `O=P(O)(O)C(CO)(Cc1nn[nH]n1)OC[C@H]1O[C@@H](n2ncc3c(NCC4CC4)nc(Cl)nc32)[C@H](O)[C@@H]1O` (mixture of isomers) [Example 184, rac-(2-(((2R,3S,4R,5R)-5-(6-chloro-4-((cyclopropylmethyl)amino)-1H-pyrazolo[3,4-d]pyrimidin-1-yl)-3,4-dihydroxytetrahydrofuran-2-yl)methoxy)-1-hydroxy-3-(2H-tetrazol-5-yl)propan-2-yl)phosphonic acid] gave an IC50 of no more than 100 nM. Next, `CCOCC(COCC)(OC[C@H]1O[C@@H](n2ncc3c(NC4CCCC4)nc(Cl)nc32)[C@H](O)[C@@H]1O)P(=O)(O)O` (racemic) [Example 185, rac-(2-(((2R,3S,4R,5R)-5-(6-chloro-4-(cyclopentylamino)-1H-pyrazolo[3,4-d]pyrimidin-1-yl)-3,4-dihydroxytetrahydrofuran-2-yl)methoxy)-1,3-diethoxypropan-2-yl)phosphonic acid]: no more than 100 nM. In turn, `O=C1CC(OC[C@H]2O[C@@H](n3ncc4c(NC5CCCC5)nc(Cl)nc43)[C@H](O)[C@@H]2O)(P(=O)(O)O)CO1` (mixture of isomers) [Example 186, rac-(3-(((2R,3S,4R,5R)-5-(6-chloro-4-(cyclopentylamino)-1H-pyrazolo[3,4-d]pyrimidin-1-yl)-3,4-dihydroxytetrahydrofuran-2-yl)methoxy)-5-oxotetrahydrofuran-3-yl)phosphonic acid] showed an IC50 of no more than 100 nM. For `O=C(O)c1ccc(C[C@@](CO)(OC[C@H]2O[C@@H](n3ncc4c(NC5CCCC5)nc(Cl)nc43)[C@H](O)[C@@H]2O)P(=O)(O)O)cc1` (racemic) [Example 187, rac-4-((R)-2-(((2R,3S,4R,5R)-5-(6-chloro-4-(cyclopentylamino)-1H-pyrazolo[3,4-d]pyrimidin-1-yl)-3,4-dihydroxytetrahydrofuran-2-yl)methoxy)-3-hydroxy-2-phosphonopropyl)benzoic acid], the IC50 was 100 to 1000 nM. The result for `O=C(O)c1ccc(C[C@](CO)(OC[C@H]2O[C@@H](n3ncc4c(NC5CCCC5)nc(Cl)nc43)[C@H](O)[C@@H]2O)P(=O)(O)O)cc1` (racemic) [Example 188, rac-4-((R)-2-(((2S,3R,4S,5S)-5-(6-chloro-4-(cyclopentylamino)-1H-pyrazolo[3,4-d]pyrimidin-1-yl)-3,4-dihydroxytetrahydrofuran-2-yl)methoxy)-3-hydroxy-2-phosphonopropyl)benzoic acid] reads 100 to 1000 nM. The result for `O=P(O)(O)C(CO)(CO)OC[C@H]1O[C@@H](n2ncc3c(N[C@@H]4CCCc5ccccc54)nc(Cl)nc32)[C@H](O)[C@@H]1O` (racemic) [Example 189, rac-(2-(((2R,3S,4R,5R)-5-(6-chloro-4-(((R)-1,2,3,4-tetrahydronaphthalen-1-yl)amino)-1H-pyrazolo[3,4-d]pyrimidin-1-yl)-3,4-dihydroxytetrahydrofuran-2-yl)methoxy)-1,3-dihydroxypropan-2-yl)phosphonic acid] reads no more than 100 nM; that for `O=C(O)c1cccc(CC(CO)(OC[C@H]2O[C@@H](n3ncc4c(NC5CCCC5)nc(Cl)nc43)[C@H](O)[C@@H]2O)P(=O)(O)O)c1` (mixture of isomers) [Example 190, rac-3-(2-(((2R,3S,4R,5R)-5-(6-chloro-4-(cyclopentylamino)-1H-pyrazolo[3,4-d]pyrimidin-1-yl)-3,4-dihydroxytetrahydrofuran-2-yl)methoxy)-3-hydroxy-2-phosphonopropyl)benzoic acid], no more than 100 nM. With `C[C@@H](O)COc1nc(NC2CCCC2)c2cnn([C@@H]3O[C@H](COC(CO)(CO)P(=O)(O)O)[C@@H](O)[C@H]3O)c2n1` (racemic) [Example 191, rac-(2-(((2R,3S,4R,5R)-5-(4-(cyclopentylamino)-6-((R)-2-hydroxypropoxy)-1H-pyrazolo[3,4-d]pyrimidin-1-yl)-3,4-dihydroxytetrahydrofuran-2-yl)methoxy)-1,3-dihydroxypropan-2-yl)phosphonic acid], the IC50 is no more than 100 nM. The result for `CC(C)(O)C#Cc1nc(NC2CCCC2)c2cnn([C@@H]3O[C@H](COC(C)(CO)P(=O)(O)O)[C@@H](O)[C@H]3O)c2n1` (mixture of isomers) [Example 192, rac-(2-(((2R,3S,4R,5R)-5-(4-(cyclopentylamino)-6-(3-hydroxy-3-methylbut-1-yn-1-yl)-1H-pyrazolo[3,4-d]pyrimidin-1-yl)-3,4-dihydroxytetrahydrofuran-2-yl)methoxy)-1-hydroxypropan-2-yl)phosphonic acid] reads no more than 100 nM; that for `C[C@](CO)(OC[C@H]1O[C@@H](n2ncc3c(NC4CCCC4)cc(Cl)nc32)[C@H](O)[C@@H]1O)P(=O)(O)O` (racemic) [Example 193, rac-((R)-2-(((2S,3R,4S,5S)-5-(6-chloro-4-(cyclopentylamino)-1H-pyrazolo[3,4-b]pyridin-1-yl)-3,4-dihydroxytetrahydrofuran-2-yl)methoxy)-1-hydroxypropan-2-yl)phosphonic acid], no more than 100 nM; that for `C[C@@](CO)(OC[C@H]1O[C@@H](n2ncc3c(NC4CCCC4)cc(Cl)nc32)[C@H](O)[C@@H]1O)P(=O)(O)O` (racemic) [Example 194, rac-((R)-2-(((2R,3S,4R,5R)-5-(6-chloro-4-(cyclopentylamino)-1H-pyrazolo[3,4-b]pyridin-1-yl)-3,4-dihydroxytetrahydrofuran-2-yl)methoxy)-1-hydroxypropan-2-yl)phosphonic acid], no more than 100 nM. The result for `O=P(O)(O)C(CO)(Cc1cc(O)no1)OC[C@H]1O[C@@H](n2ncc3c(NC4CCCC4)nc(Cl)nc32)[C@H](O)[C@@H]1O` (mixture of isomers) [Example 195, rac-(2-(((2R,3S,4R,5R)-5-(6-chloro-4-(cyclopentylamino)-1H-pyrazolo[3,4-d]pyrimidin-1-yl)-3,4-dihydroxytetrahydrofuran-2-yl)methoxy)-1-hydroxy-3-(3-hydroxyisoxazol-5-yl)propan-2-yl)phosphonic acid] reads no more than 100 nM; that for `O=P(O)(O)[C@](CO)(Cc1nn[nH]n1)OC[C@H]1O[C@@H](n2ncc3c(NCC4CC4)nc(Cl)nc32)[C@H](O)[C@@H]1O` (racemic) [Example 196, rac-((R)-2-(((2S,3R,4S,5S)-5-(6-chloro-4-((cyclopropylmethyl)amino)-1H-pyrazolo[3,4-d]pyrimidin-1-yl)-3,4-dihydroxytetrahydrofuran-2-yl)methoxy)-1-hydroxy-3-(2H-tetrazol-5-yl)propan-2-yl)phosphonic acid], no more than 100 nM; that for `O=P(O)(O)[C@@](CO)(Cc1nn[nH]n1)OC[C@H]1O[C@@H](n2ncc3c(NCC4CC4)nc(Cl)nc32)[C@H](O)[C@@H]1O` (racemic) [Example 197, rac-((R)-2-(((2R,3S,4R,5R)-5-(6-chloro-4-((cyclopropylmethyl)amino)-1H-pyrazolo[3,4-d]pyrimidin-1-yl)-3,4-dihydroxytetrahydrofuran-2-yl)methoxy)-1-hydroxy-3-(2H-tetrazol-5-yl)propan-2-yl)phosphonic acid], no more than 100 nM.
